Experimental data: patent US8633319B2, “7-(1H-pyrazol-4-yl)-1,6-naphthyridine compounds as Syk inhibitors” (Glaxo Group Limited, priority 2010, dated 2014)
Like-named read-outs stand apart in the source and are kept apart here.

Legend:
[1] = biological target: T1, SYK lysate (Homo sapiens, UniProt P43405); assay: Basic Syk Enzyme Activity; type: biochemical; settings: read-out: average pIC50 (converted)
T1 construct: Stimulation of Ramos Cells with Anti-IgM Ab to Produce Syk & Preparation of Lysates; endogenous in cells; host or cells: Ramos B cells (human Burkitt's lymphoma, clone 296.4C10, ATCC), stimulated with anti-IgM and lysed in 1% Triton X-100
Method: 3 μl of SYK lysate diluted 16-fold in assay buffer (20 mM TRIS pH 7.4, 0.01% BSA, 0.1% Pluronic F-68) was added to wells containing 0.1 μl of various concentrations of compound or DMSO vehicle (1.7% final) in a Greiner low volume 384 well black plate. Following 15 min pre-incubation at room temperature, the reaction was initiated by the addition of 3 μl of substrate reagent containing Y7 Sox peptide, (Invitrogen Cat. # KNZ3071, 5 μM final), ATP (35 μM final) and MgCl2 (10 mM final) in assay buffer. The reaction was incubated at room temperature before measuring fluorescence intensity (λex 360/λem 485) on an Envision plate reader (Perkin Elmer Life Sciences, Waltham, Mass., USA) at 15 min and 55 min post-substrate addition.
Ramos B Cells (human B cells of Burkitt's lymphoma, clone 296.4C10, ATCC) were cultured in suspension in growth medium (RPMI-1640, Sigma; supplemented with 2 mM L-glutamine, Gibco; 10 mM Hepes, Sigma; 1 mM sodium pyruvate, Sigma; 10% v/v heat-inactivated FCS, Gibco). Cells were grown in Corning Cellstacks (6360 cm^2) in 1 liter volume and viability and cell density were monitored daily. Cells were maintained at <1.5×10e6/ml and >92% viability.
Cells were stimulated at 20×10^6 cells/ml using 15 ug/ml (final concentration) anti-IgM antibody. Following harvest (as described above), a total of 4×10^9 cells were resuspended in 180 ml pre-warmed (37° C.) DPBS in a Corning 500 ml centrifuge bottle. 20 ml anti-IgM antibody at 150 ug/ml were added to each 500 ml centrifuge bottle (working stock made up in DPBS pre-warmed to 37° C.). Cells were incubated for exactly 5 min at 37° C. following the addition of anti IgM antibody. Following 5 min stimulation, 300 ml ice-cold DPBS were added to each bottle to stop the stimulation (temperature drops to ˜12° C.) then cells were centrifuged at 2000 rpm (Sorvall Legend RT+ centrifuge—pre-chilled to 4° C.). Cells were washed by resuspension in ice-cold DPBS and centrifugation as above. The cell pellet was then lysed in ice-cold lysis buffer containing 1% triton-x-100 at a ratio of 150 ul/1×10^7 cells (i.e. 48 ml lysis buffer). Following the addition of lysis buffer, the cells were pipetted up & down & kept on ice for 15 min. The clarified lysate was then obtained by centrifugation (Sorvall Evolution RC (SLA-1500 rotor, ˜20,000 g (˜14,500 rpm), 45 min, 4° C.).
Lysate was aliquoted, snap-frozen on dry-ice & stored at −80° C. prior to assay.
Lysis Buffer: 50 mM TRIS pH7.5+150 mM NaCl+1% Triton-X-100+2 mM EGTA+1:100 dilution inhibitor cocktails (phosphatase inhibitor cocktail set II, calbiochem cat no. 524625 & protease inhibitor cocktail set V, calbiochem cat no. 539137)

[2] = test system: Whole blood B cells; assay: CD69 Whole Blood Assay; type: cell-based; settings: Homo sapiens, B-cell, anti-IgM stimulated
Method: Whole blood B cells are stimulated ex-vivo using anti-IgM. […] The subsequent autophosphorylation of Syk leads to initiation of a signalling cascade resulting in B cell activation as indicated by expression of the activation marker CD69 on the cell surface. CD20/CD69+ve whole blood B cells are detected by flow cytometry.
100 μl heparinised human blood was added to a 5 ml polypropylene tube containing 1 μl appropriately diluted compound solution and incubated for 25 min at 37° C. with 5% CO2. B cells were stimulated with 10 μl Fab′2 fragments of goat anti-human IgM (43 μg/ml final concentration) for a further 3.5 h under the conditions previously described. The red blood cells were lysed and all other cells fixed by the addition of 2 ml Lyse/Fix buffer for 10 min at room temperature.
The cells were stained using a cocktail of mouse anti-human CD20 FITC and mouse anti-human CD69 PE conjugated antibodies. CD20/CD69+ve B cells present in the sample were detected by flow cytometry.
Compound was prepared as a 10 mM stock in DMSO, further diluted down in DMSO to 1 mM and a dilution series prepared in DMSO using 7 successive 3-fold dilutions to give the final concentration range to be tested of 1×10^−5 to 4.57×10^−9M. Compound dilutions were prepared using the Biomek 2000 automated robotic pipetting system.

[3] = biological target: T2, hERG (Homo sapiens, UniProt Q12809); assay: Cy3B Dofetilide Fluoro-Ligand Binding Assay for hERG; settings: membranes of CHO-K1 cells that express hERG, pH 7.4, probe Cy3b-Dofetilide fluoro-ligand, 1.0 nM, hERG-expressing CHO-K1 membranes
T2 construct: expressed in transfected cells; host or cells: CHO-K1 cells stably expressing human hERG; membrane fraction
Method: Compound potencies were determined by a fluoro-ligand^§ (Cy3b-Dofetilide) fluorescence polarisation assay.
hERG-expressing CHO-K1 membranes* (60 μg/ml) were incubated with 1.0 nM fluoro-ligand^§, in assay buffer (25 mM HEPES, 1.2 mM MgCl2, 100 mM KCl and 0.1% pluronic, pH adjusted to 7.4 using 5M KOH). The final potassium concentration in the assay was 100 mM. After 70 min mixing at room temperature, in the dark, 10 μl was dispensed into each well of a black LV Greiner 384-well plate containing 0.1 μl of test compound in DMSO. The plates were left to equilibrate for 2 h before reading on an Acquest™/Analyst™ imager. pIC50 data were generated using from an 11-point inhibition curve (top assay concentration of 50 μM and a 1:3 step-dilution), a […] curve-fit being applied using ABase and XC50 to analyse data and generate curve fits.
Chinese Hamster Ovary (CHO) cells stably expressing the human hERG receptor were grown to 80% confluency before being harvested by trypsinisation and subsequent centrifugation at 500 g for 10 min. Cell pellets were frozen at −80 C before membrane production. The frozen pellet was thawed on ice, re-suspended and homogenised in 10 volumes of membrane buffer (50 mM HEPES, pH 7.4, 1 mM EDTA, 1 mM PMSF, 2×10^-6M Pepstatin A). The membrane suspension was centrifuged for 20 min at 500 g, the pellet discarded and the supernatent spun again at 48,000 g for 30 min. Following the second centrifugation the remaining pellet containing the membrane fraction was re-suspended in an appropriate volume (4 ml for each ml of frozen cell pellet) and assayed for protein concentration.

[4] = test system: allergic rhinitis; settings: intranasal, phase I/II; cited from earlier work
[5] = test system: allergic rhinitis; settings: phase II; cited from earlier work
[6] = test system: B-Cell non-Hodgkin's lymphoma (NHL); settings: cited from earlier work
[7] = test system: B lymphoma (BKS-2); settings: mouse, in vivo; cited from earlier work
[8] = as the free base, read-out: average IC50
[9] = as the free base, read-out: average pIC50 (converted)
[10] = form not stated (first list), read-out: average pIC50 (converted)
[11] = hydrochloric acid salts, read-out: average IC50
[12] = hydrochloric acid salts, read-out: average pIC50 (converted)

T2 sequence (Q12809 whole entry): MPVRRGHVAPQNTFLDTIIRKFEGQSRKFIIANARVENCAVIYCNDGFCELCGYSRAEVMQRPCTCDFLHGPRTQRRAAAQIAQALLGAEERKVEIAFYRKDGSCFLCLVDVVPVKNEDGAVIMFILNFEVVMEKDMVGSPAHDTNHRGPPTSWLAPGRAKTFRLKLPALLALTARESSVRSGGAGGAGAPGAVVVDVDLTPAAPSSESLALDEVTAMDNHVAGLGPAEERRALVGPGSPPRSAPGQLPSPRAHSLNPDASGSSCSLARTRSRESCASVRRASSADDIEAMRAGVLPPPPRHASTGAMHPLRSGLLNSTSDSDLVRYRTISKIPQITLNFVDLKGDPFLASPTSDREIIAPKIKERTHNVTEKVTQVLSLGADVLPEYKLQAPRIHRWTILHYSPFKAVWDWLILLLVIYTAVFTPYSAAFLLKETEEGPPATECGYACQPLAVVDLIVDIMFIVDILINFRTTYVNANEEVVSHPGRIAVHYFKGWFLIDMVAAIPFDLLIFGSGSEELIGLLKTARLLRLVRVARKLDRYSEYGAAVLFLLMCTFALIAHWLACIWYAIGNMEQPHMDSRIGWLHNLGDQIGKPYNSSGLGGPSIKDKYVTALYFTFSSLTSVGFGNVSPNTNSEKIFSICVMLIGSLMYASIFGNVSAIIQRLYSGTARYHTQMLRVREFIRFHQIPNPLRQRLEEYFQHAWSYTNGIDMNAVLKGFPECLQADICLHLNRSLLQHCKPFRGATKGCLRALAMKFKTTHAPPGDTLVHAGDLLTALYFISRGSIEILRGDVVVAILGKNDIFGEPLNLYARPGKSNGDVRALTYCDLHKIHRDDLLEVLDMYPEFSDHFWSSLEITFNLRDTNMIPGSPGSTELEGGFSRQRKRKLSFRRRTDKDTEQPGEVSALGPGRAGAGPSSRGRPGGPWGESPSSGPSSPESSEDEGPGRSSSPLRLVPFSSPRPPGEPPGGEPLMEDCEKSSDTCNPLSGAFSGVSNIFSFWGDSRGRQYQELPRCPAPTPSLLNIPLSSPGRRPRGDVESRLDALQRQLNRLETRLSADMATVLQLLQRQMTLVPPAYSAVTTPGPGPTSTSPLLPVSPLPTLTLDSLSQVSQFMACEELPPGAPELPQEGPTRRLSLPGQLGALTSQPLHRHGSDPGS

| SMILES | IC50 ([1]; as the free base) [nM] | IC50 [2, 8] [nM] | IC50 [2, 9] [nM] | IC50 at 2 h [3, 8] [nM] | IC50 at 2 h [3, 10] [nM] | also measured |
| --- | --- | --- | --- | --- | --- | --- |
| FC(F)(F)Cn1cc(-c2cc3ncccc3c(NCC3(F)CCCNC3)n2)cn1 (single isomer, unassigned) [Example 9A, N-{[3-fluoro-3-piperidinyl]methyl}-7-[1-(2,2,2-trifluoroethyl)-1H-pyrazol-4-yl]-1,6-naphthyridin-5-amine] | ≤ 100 | < 1000 | ≤ 1000 | > 10000 | > 10000 |  |
| CC(C)(O)Cn1cc(-c2cc3ncccc3c(NC[C@]3(F)CCCNC3)n2)cn1 [Example 5, 1-{4-[5-({[(3S)-3-fluoro-3-piperidinyl]methyl}amino)-1,6-naphthyridin-7-yl]-1H-pyrazol-1-yl}-2-methyl-2-propanol] | ≤ 100 |  | ≤ 1000 | > 10000 | > 10000 |  |
| Oc1cccc(Nc2ncc(F)c(Nc3cccc(O)c3)n2)c1 [Example R112] |  |  |  |  |  | PGD2 [4]: statistically significant decrease; clinical safety [4]: safe across a range of indicators; efficacy versus placebo [5]: lack of efficacy |
| FC1(CNc2nc(-c3cnn(Cc4ccccc4)c3)cc3ncccc23)CCCNC1 (racemic) [Example 10, N-[(3-fluoro-3-piperidinyl)methyl]-7-[1-(phenylmethyl)-1H-pyrazol-4-yl]-1,6-naphthyridin-5-amine] | ≤ 100 | < 1000 | ≤ 1000 | > 10000 | > 10000 |  |
| FC1(CNc2nc(-c3cnn(C4CCCC4)c3)cc3ncccc23)CCCNC1 (racemic) [Example 8, 7-(1-cyclopentyl-1H-pyrazol-4-yl)-N-[(3-fluoro-3-piperidinyl)methyl]-1,6-naphthyridin-5-amine] | ≤ 100 | < 1000 | ≤ 1000 | > 10000 | > 10000 |  |
| COc1cc(Nc2ncc(F)c(Nc3ccc4c(n3)N(COP(=O)(O)O)C(=O)C(C)(C)O4)n2)cc(OC)c1OC [Example R788, fostamatinib disodium] |  |  |  |  |  | therapeutic benefit ([6]; patients with DLBCL and CLL/SLL): therapeutic benefit; tolerability ([6]; patients with relapsed or refractory B-Cell NHL): well-tolerated |
| COc1cc(/C=C/C(=O)CC(=O)/C=C/c2ccc(O)c(OC)c2)ccc1O [curcumin] |  |  |  |  |  | tumour burden as measured by the total splenocyte number [7]: significant reduction |
| COCCn1cc(-c2cc3ncccc3c(NC[C@]3(F)CCCNC3)n2)cn1 [Example 7, N-{[(3S)-3-fluoro-3-piperidinyl]methyl}-7-{1-[2-(methyloxy)ethyl]-1H-pyrazol-4-yl}-1,6-naphthyridin-5-amine] | ≤ 100 | < 1000 | ≤ 1000 | > 10000 | > 10000 |  |
| OCCn1cc(-c2cc3ncccc3c(NC[C@]3(F)CCCNC3)n2)cn1 [Example 6, 2-{4-[5-({[(3S)-3-fluoro-3-piperidinyl]methyl}amino)-1,6-naphthyridin-7-yl]-1H-pyrazol-1-yl}ethanol] |  |  |  |  |  | IC50 ([1]; hydrochloric acid salts): ≤ 316 nM; IC50 [2, 11]: < 1000 nM; IC50 [2, 12]: ≤ 1000 nM; IC50 at 2 h [3, 11]: > 20000 nM; IC50 at 2 h [3, 12]: > 10000 nM |
| CC(C)n1cc(-c2cc3ncccc3c(NCC3(F)CCCNC3)n2)cn1 (single isomer, unassigned) [Example 11A, N-{[3-fluoro-3-piperidinyl]methyl}-7-[1-(1-methylethyl)-1H-pyrazol-4-yl]-1,6-naphthyridin-5-amine] | ≤ 100 | < 1000 | ≤ 1000 | > 10000 | > 10000 |  |
